In US10653658B2, “Biofilm inhibiting compositions enhancing weight gain in livestock” (Akeso Biomedical, Inc., priority 2015, dated 2020):
Marks after values point to notes of the source that are not given here.

Experiment: Growth performance of broilers given FeQ or FeTyr in water/feed, dirty litter Campylobacter challenge at day 20 (Example 1)
Assay type: in vivo, Ross 308 male broilers
Description: A study was performed to evaluate growth promotion and reduction of Campylobacter carriage using FeQ and FeTyr in Ross 308 male broilers with 7 treatment groups. Each treatment group comprised four replicates of 10 birds per pen (40 birds/treatment group and 4 pens of 10 birds/treatment group), with 2 control groups and 5 test groups. All the test groups and one of the control groups were exposed at day 20 of the trial to dirty litter, which tested positive for Campylobacter. This method was used to provide a more natural method to Campylobacter challenge the birds. Thus there was a positive control where one treatment group was challenged with Campylobacter and one negative control group where the birds were not challenged, and five treatment groups that were all challenged with Campylobacter. The total number of birds used in the 7 treatment groups was 280. Treatment group 1 was a negative control where birds just received the commercial feed, and were not challenged with dirty litter containing Campylobacter. Treatment group 2 was the positive control where the birds received the commercial feed, and were challenged with dirty litter containing Campylobacter at day 20. Treatment group 3 received 0.22 g/L of FeQ in their drinking water and 0.22 g/Kg FeQ in their feed during the entire trial, and was challenged with dirty litter containing Campylobacter at day 20. Treatment group 5 received 0.22 g/L of FeQ in their drinking water during the entire trial, and was challenged with dirty litter containing Campylobacter at day 20. Treatment group 6 received 0.22 g/kg FeQ in their feed during the entire trial, and was challenged with dirty litter containing Campylobacter at day 20. Treatment group 7 received 0.022 g/L FeQ in their drinking water during the entire trial, and was challenged with dirty litter containing Campylobacter at day 20. Treatment group 8 received 0.02 g/L FeTyr in their drinking water during the entire trial, and was challenged with dirty litter containing Campylobacter at day 20. The FeTyr was pre-dissolved in DMSO, and diluted to provide a solution of 0.02 g/L of FeTyr in water. (An additional treatment group 4 was terminated due to solubility issues.)
The birds were fed with a commercial three-phase feeding program using starter, grower and finisher feeds with formulations shown in Table 2. All diets had coccidiostat (MAXIBAN® at 0.0625% in starter and […] and MONTEBAN® at 0.06% in finisher phase). Xylanase (RONOZYME® WX at 200 g per ton) and phytase (RONOZYME® P at 150 grams per ton) were added to all diets.
The feeding program is show in Table 3. The birds were reared in floor pens to day 42, and fed starter, grower and finisher feed at day 0 to 11, 11 to 24, and 24 to 42 days, respectively. All birds were weighed individually and feed weigh backs recorded per pen at day 0, 11, 21, 24 and 42 days.
Prior to challenging the chickens with dirty litter containing Campylobacter at day 20, each pen was tested for Campylobacter using cloacal swabs. All pens tested negative for Campylobacter prior to the challenge. At day 20, litter, which was naturally Campylobacter-contaminated, was tested to confirm the presence of Campylobacter, and then added (approximately 2 kg/pen) to the litter in all pens except in pens for treatment group 1 (the negative control). At day 28, the pen litter was sampled to confirm the presence or absence of Campylobacter. At day 41 and 42, caecal samples were taken from 3 birds per pen (12 birds per treatment group) and tested for Campylobacter enumeration. At day 42, digesta, fecal samples, and caecal content was taken from all birds, and pooled per pen. Two birds per pen were also taken from treatment groups 1-3, euthanized, and blood samples taken. […]

[1] = FeQ groups 3, 5, 6, 7 pooled, absence of Campylobacter challenge
[2] = treatment 3: 0.22 g/L FeQ in water + 0.22 g/kg FeQ in feed
[3] = treatment 3: 0.22 g/L FeQ in water + 0.22 g/kg FeQ in feed, before challenge
[4] = treatment 5: 0.22 g/L FeQ in water

O=C([O-])C1(O)CC(O)C(O)C(O)C1.O=C([O-])C1(O)CC(O)C(O)C(O)C1.O=C([O-])C1(O)CC(O)C(O)C(O)C1.[Fe+3] (centres unmarked) [FeQ, Ferric Quinate]
ABW (average body weight) Day 11 [1]: 0.339 kg
ABW (average body weight) Day 20 [1]: 0.963 kg
AFD (average feed intake) 0-20 days [1]: 1.191 kg
AWG (average weight gain) 0-20 days [1]: 0.923 kg
effect on growth performance in the absence of Campylobacter challenge, first 20 days (compared with control groups 1 and 2): promotes growth of chicken
ABW (average body weight) Day 0 [2]: 0.040 kg
ABW (average body weight) Day 11 [2]: 0.346 kg
ABW (average body weight) Day 20 [2]: 0.972 kg
ABW (average body weight) Day 25 [2]: 1.424 kg
ABW (average body weight) Day 42 [2]: 3.342 kg
AFD (average feed intake) Day 0-11 [2]: 0.356 kg
AFD (average feed intake) Day 0-42 [2]: 5.267 kg
AFD (average feed intake) Day 11-20 [2]: 0.857 kg
AFD (average feed intake) Day 11-25 [2]: 1.524 kg
AFD (average feed intake) Day 20-25 [2]: 0.667 kg
AFD (average feed intake) Day 20-42 [2]: 4.054 kg
AFD (average feed intake) Day 25-42 [2]: 3.387 kg
AWG (average weight gain) Day 0-11 [2]: 0.306 kg
AWG (average weight gain) Day 0-42 [2]: 3.302^ab kg
AWG (average weight gain) Day 11-20 [2]: 0.625 kg
AWG (average weight gain) Day 11-25 [2]: 1.078 kg
AWG (average weight gain) Day 20-25 [2]: 0.453 kg
AWG (average weight gain) Day 20-42 [2]: 2.370^ab kg
AWG (average weight gain) Day 25-42 [2]: 1.918^ab kg
EPEF (European production and efficiency factor) Day 20 [2]: 350.4
EPEF (European production and efficiency factor) Day 42 [2]: 262.9
MFCR (mortality adjusted FCR) Day 11-20 [2]: 1.375
MFCR (mortality adjusted FCR) Day 11-25 [2]: 1.417
MFCR (mortality adjusted FCR) Day 20-25 [2]: 1.477
MFCR (mortality adjusted FCR) Day 25-42 [2]: 1.773
MFCR (mortality adjusted feed conversion ratio) Day 0-11 [2]: 1.181^ab
MFCR (mortality adjusted) Day 0-42 [2]: 1.595
MFCR (mortality adjusted) Day 20-42 [2]: 1.713
AFD (average feed intake) Day 0-20 [3]: 1.213 kg
AWG (average weight gain) Day 0-20 [3]: 0.931 kg
MFCR (mortality adjusted) Day 0-20 [3]: 1.310
ABW (average body weight) Day 0 [4]: 0.040 kg
ABW (average body weight) Day 11 [4]: 0.334 kg
ABW (average body weight) Day 20 [4]: 0.943 kg
ABW (average body weight) Day 25 [4]: 1.384 kg
ABW (average body weight) Day 42 [4]: 3.407 kg
AFD (average feed intake) Day 0-11 [4]: 0.352 kg
AFD (average feed intake) Day 0-42 [4]: 5.188 kg
AFD (average feed intake) Day 11-20 [4]: 0.821 kg
AFD (average feed intake) Day 11-25 [4]: 1.479 kg
AFD (average feed intake) Day 20-25 [4]: 0.658 kg
AFD (average feed intake) Day 20-42 [4]: 4.015 kg
AFD (average feed intake) Day 25-42 [4]: 3.357 kg
AWG (average weight gain) Day 0-11 [4]: 0.294 kg
AWG (average weight gain) Day 0-42 [4]: 3.367^ab kg
AWG (average weight gain) Day 11-20 [4]: 0.609 kg
AWG (average weight gain) Day 11-25 [4]: 1.050 kg
AWG (average weight gain) Day 20-25 [4]: 0.441 kg
AWG (average weight gain) Day 20-42 [4]: 2.464^ab kg
AWG (average weight gain) Day 25-42 [4]: 2.023^b kg
EPEF (European production and efficiency factor) Day 20 [4]: 352.0
EPEF (European production and efficiency factor) Day 42 [4]: 278.3
MFCR (mortality adjusted FCR) Day 11-20 [4]: 1.348
MFCR (mortality adjusted FCR) Day 11-25 [4]: 1.409
MFCR (mortality adjusted FCR) Day 20-25 [4]: 1.495
MFCR (mortality adjusted FCR) Day 25-42 [4]: 1.706
MFCR (mortality adjusted feed conversion ratio) Day 0-11 [4]: 1.210^ab
MFCR (mortality adjusted) Day 0-42 [4]: 1.560
MFCR (mortality adjusted) Day 20-42 [4]: 1.665
AFD (average feed intake) Day 0-20 (treatment 5: 0.22 g/L FeQ in water, before challenge): 1.173 kg
